From US5629198A (priority 1991, dated 1997)

Columns and labels:
[1] = tested on: MOLT-4/HTLV-IIIB; experiment: Killing effect on cells persistently infected with HIV (Test Example 1), trypan blue; type: cell-based, human; conditions: for killing effect on HIV-infected cells: summary
Method: (§1) The cell killing effects of test substances were determined using a cell strain persistently infected with HIV in MOLT-4 cells and MOLT-4 cells.
(§2) MOLT4/HTLV-IIIB, MOLT4/ARV and MOLT4 cell strains were separately inoculated in proportions of 4×10^4 cells/well (200 μl) on a 96-well plate, and the above test substances in various concentrations were separately added in an amount of 20 μl thereto. After each cell sample was cultured for 3 days at 37° C. in the presence of 5% CO2, the culture was diluted to a triple or quadruple amount, thereby counting the number of living cells by a trypan blue dye exclusion test. As a control, 20 μl of PBS were added in place of each test substance. Each numerical value is expressed in terms of the percentage of living cells to the control.

[2] = tested on: MOLT-4/ARV; experiment: as above; type: cell-based, human; conditions: 3 days
Method: as §1, §2

[3] = tested on: HTLV-IIIB in MT-4 cells; experiment: Anti-HIV effect: TCID50 of infectious virus from infected MT-4 cells (Test Example 5); type: cell-based, HIV (HTLV-IIIB); conditions: for TCID50 (quantity of infectious virus): 4 days, positive control 3.31 × 10^7; for proliferation inhibiting effect on HIV: summary
Method: The inhibitory effects of test substances on the cytopathy and HIV antigen production of MT-4 cells due to HIV infection were determined.
MT-4 cells belonging to a cell strain persistently infected with HTLV-1 are high in sensitivity to HIV and promptly die out when infected. MT-4/HIV cells which are MT-4 cells infected with HIV are used for screening anti-HIV agents making good use of this nature.
After MT-4 cells (1.2×10^7 cells) were infected for 2 hours at 37° C. with 3.2 ml of HTLV-IIIB (10^7 TCID50 /ml) obtained from a culture supernatant of a cell strain persistently infected with HIV, i.e., […], the cells were washed. After the cells were then inoculated on a 48-well microplate in a proportion of 1×10^5 cells/well, the test substances were separately added in an amount of 100 μl. As a negative control, there was used a culture obtained by adding 3.2 ml of a culture supernatant after culturing MOLT-4 cells for 3 days to MT-4 cells (4.7×10^6 cells), conducting culture for 2 hours at 37° C., washing the cells in the same manner as described above, inoculating them in a proportion of 1×10^5 cells/well and adding PBS in place of the test substances.
Upon elapsed time of 4 days after the culture, each supernatant was assayed on a P24gag protein based on an EIA kit produced by Abbott Labs, and the number of living cells was counted by the Trypan Blue dye exclusion method, and moreover, TCID50 indicative of an actual quantity of infectious virus was calculated.

[4] = tested on: MOLT-4; experiment: Killing effect on uninfected cells (Test Example 1), trypan blue; type: cell-based, human; conditions: 3 days
Method: as §1, §2

[5] = tested on: MT-4/LAV-infected system; conditions: cited from earlier work
[6] = tested on: cells persistently infected with HIV; conditions: cited from earlier work
[7] = tested on: Molt-4/C18 cells infected with Molt-4/HTLV-IIIB culture supernatant; experiment: Inhibiting effect on cytopathy, MTT assay (Test Example 8 (2)); type: cell-based; conditions: Homo sapiens, MOLT-4, 96 h, read-out: Number of living cells
Method: (2) The inhibiting effects of test substances on the formation of multinucleated giant cells and on cytopathy in a Molt-4/C18 cell-infected system were investigated.
Molt-4/C18 cells in a logarithmic growth phase were inoculated in a proportion of 2×10^4 cells/well (20 μl) on a 96-well flat-bottom plate, and 30 μl of a culture supernatant of Molt-4/HTLV-IIIB cells were added. Then, solutions of the test substances in various concentrations were separately added in an amount of 50 μl, followed by their culture at 37° C. under conditions of 5% CO2. To wells for a positive control, 50 μl of a culture medium were added in place of the solution of each test substance, while to wells for a negative control, 30 μl of the culture medium were added instead of the culture supernatant. Defining the day the culture was started as Day 0, the culture was continuously conducted for 4 days to observe a state of formation of multinucleated giant cells and to count the number of living cells by the MTT assay.

[8] = in vivo; cited from earlier work
[9] = Homo sapiens, MOLT-4, 72 h, 1 μM, read-out: living cells (percentage to the control)

SMILES: C=CC1=C(C)c2cc3[n-]c(cc4[n-]c(cc5nc(cc1n2)C(C)=C5C=C)c(C)c4CCC(=O)O)c(CCC(=O)O)c3C.[Cl-].[Fe+3] [Hemin]
- living cells (percentage to the control) ([1]; 10 μM, 3 days): 100%
- living cells (percentage to the control) ([1]; 40 μM, 3 days): 90%
- killing effect on HIV-infected cells [1]: no killing effect on HIV-infected cells
- living cells (percentage to the control) ([2]; 10 μM): 94%
- living cells (percentage to the control) ([2]; 40 μM): 93%
- TCID50 (quantity of infectious virus) ([3]; 10 μM): 1.52 × 10^7 TCID50 /ml
- proliferation inhibiting effect on HIV [3]: have a proliferation inhibiting effect on HIV
- living cells (percentage to the control) ([4]; 10 μM): 98%
- living cells (percentage to the control) ([4]; 40 μM): 99%

SMILES: C=CC1=C(C)c2cc3[nH]c(cc4nc(cc5[nH]c(cc1n2)c(C)c5CCC(=O)O)C(CCC(=O)O)=C4C)c(C)c3C=C [protoporphyrin]
- killing effect on HIV-infected cells [1]: no killing effect on HIV-infected cells
- anti-HIV activity [5]: exhibits an anti-HIV activity
- proliferation inhibiting effect on HIV [3]: have a proliferation inhibiting effect on HIV

SMILES: Cc1cn([C@H]2C[C@H](N=[N+]=[N-])[C@@H](CO)O2)c(=O)[nH]c1=O [AZT, 3'-azido-3'-deoxythymidine]
- effect on cells already infected with HIV [6]: no effect on cells already infected with HIV
- viability at 25 µM ([7]; 25 (μM), 4 days, positive control 27): 84%
- viability at 0.004 µM [7]: 42%
- viability at 0.02 µM [7]: 69%
- viability at 0.1 µM [7]: 79%
- viability at 0.5 µM [7]: 84%
- side effects [8]: a myelodepresant effect is remarkably observed as a side effect in addition to headache and gastrointestinal disorders
- viability at 1 µM ([1]; Homo sapiens, MOLT-4, 72 h, 1 μM, 3 days, read-out: living cells (percentage to the control)): 71%
- viability at 1 µM [2, 9]: 82%
- TCID50 (quantity of infectious virus) ([3]; 1 μM): 5.94 × 10^4 TCID50 /ml
- viability at 1 µM [4, 9]: 55%
